In ChEMBL document CHEMBL3044665, “Adzuki bean (Vigna angularis) responses to post-emergence herbicides” (Crop Prot, 2006) one finds Crop_yield and Activity data, which are given here for 2 compounds.

Common to all, as to format: organism-based
In data set [1] the test system is Vigna angularis. The data set is described as follows: Phytotoxicity in Vigna angularis (adzuki bean) assessed as crop yield at 144 g ai/ha measured during post emergence applied as spray (reference value: 2.05 t/ha). To be noted: in vivo, other.
For data set [2], the system named is Vigna angularis. As to the kind of experiment: Phytotoxicity in Vigna angularis (adzuki bean) assessed as crop yield at 72 g ai/ha measured during post emergence applied as spray (reference value: 2.05 t/ha). To be noted: in vivo, other.
Data set [3] relates to Vigna angularis. The data set is described as follows: Phytotoxicity in Vigna angularis (adzuki bean) assessed as shoot dry weight at 144 g ai/ha measured per 1 m row after 42 days applied as spray (reference value: 153 g). The conditions noted are these: in vivo, other, 1008 h.
In data set [4] the test system is Vigna angularis. As to the kind of experiment: Phytotoxicity in Vigna angularis (adzuki bean) assessed as shoot dry weight at 72 g ai/ha measured per 1 m row after 42 days applied as spray (reference value: 153 g). To be noted: in vivo, other, 1008 h.
The subject of data set [5] is Vigna angularis. The data set is described as follows: Phytotoxicity in Vigna angularis (adzuki bean) assessed as seed moisture content at 144 g ai/ha after 42 days applied as spray (reference value: 13.9%). The conditions noted are these: in vivo, other, 1008 h, at 144 g/ha.
Data set [6] concerns Vigna angularis. The data set is described as follows: Phytotoxicity in Vigna angularis (adzuki bean) assessed as seed moisture content at 72 g ai/ha after 42 days applied as spray (reference value: 13.9%). To be noted: in vivo, other, 1008 h, at 72 g/ha.
Data set [7] concerns Vigna angularis. As to the kind of experiment: Phytotoxicity in Vigna angularis (adzuki bean) assessed as visual injury at 144 g ai/ha after 28 days applied as spray relative to untreated control. The conditions noted are these: in vivo, other, 672 h.
Data set [8] concerns Vigna angularis. As to the kind of experiment: Phytotoxicity in Vigna angularis (adzuki bean) assessed as visual injury at 144 g ai/ha after 14 days applied as spray relative to untreated control. To be noted: in vivo, other, 336 h.
The test system of data set [9] is Vigna angularis. As to the kind of experiment: Phytotoxicity in Vigna angularis (adzuki bean) assessed as visual injury at 144 g ai/ha after 7 days applied as spray relative to untreated control. To be noted: in vivo, other, 168 h.
In data set [10] the test system is Vigna angularis. The data set is described as follows: Phytotoxicity in Vigna angularis (adzuki bean) assessed as visual injury at 72 g ai/ha after 28 days applied as spray relative to untreated control. To be noted: in vivo, other, 672 h.
Data set [11] relates to Vigna angularis. The data set is described as follows: Phytotoxicity in Vigna angularis (adzuki bean) assessed as visual injury at 72 g ai/ha after 14 days applied as spray relative to untreated control. The conditions noted are these: in vivo, other, 336 h.
Data set [12] relates to Vigna angularis. The data set is described as follows: Phytotoxicity in Vigna angularis (adzuki bean) assessed as visual injury at 72 g ai/ha after 7 days applied as spray relative to untreated control. The conditions noted are these: in vivo, other, 168 h.
The subject of data set [13] is Vigna angularis. The data set is described as follows: Phytotoxicity in Vigna angularis (adzuki bean) assessed as plant height at 144 g ai/ha after 28 days applied as spray (RVB = 34 cm). The conditions noted are these: in vivo, other, 672 h.
In data set [14] the test system is Vigna angularis. The data set is described as follows: Phytotoxicity in Vigna angularis (adzuki bean) assessed as plant height at 72 g ai/ha after 28 days applied as spray (RVB = 34 cm). The conditions noted are these: in vivo, other, 672 h.
Data set [15] deals with Vigna angularis. The data set is described as follows: Phytotoxicity in Vigna angularis (adzuki bean) assessed as crop yield at 1000 g ai/ha measured during post emergence applied as spray (reference value: 2.05 t/ha). To be noted: in vivo, other.
For data set [16], the system named is Vigna angularis. The data set is described as follows: Phytotoxicity in Vigna angularis (adzuki bean) assessed as crop yield at 500 g ai/ha measured during post emergence applied as spray (reference value: 2.05 t/ha). To be noted: in vivo, other.
Data set [17] has as its system Vigna angularis. The data set is described as follows: Phytotoxicity in Vigna angularis (adzuki bean) assessed as seed moisture content at 1000 g ai/ha after 42 days applied as spray (reference value: 13.9%). The conditions noted are these: in vivo, other, 1008 h, at 1000 g/ha.
Data set [18] relates to Vigna angularis. The data set is described as follows: Phytotoxicity in Vigna angularis (adzuki bean) assessed as seed moisture content at 500 g ai/ha after 42 days applied as spray (reference value: 13.9%). To be noted: in vivo, other, 1008 h, at 500 g/ha.
Data set [19] deals with Vigna angularis. The data set is described as follows: Phytotoxicity in Vigna angularis (adzuki bean) assessed as plant height at 500 g ai/ha after 28 days applied as spray (RVB = 34 cm). To be noted: in vivo, other, 672 h.
Data set [20] deals with Vigna angularis. As to the kind of experiment: Phytotoxicity in Vigna angularis (adzuki bean) assessed as visual injury at 1000 g ai/ha after 28 days applied as spray relative to untreated control. The conditions noted are these: in vivo, other, 672 h.
In data set [21] the test system is Vigna angularis. As to the kind of experiment: Phytotoxicity in Vigna angularis (adzuki bean) assessed as visual injury at 1000 g ai/ha after 14 days applied as spray relative to untreated control. The conditions noted are these: in vivo, other, 336 h.
The test system of data set [22] is Vigna angularis. The data set is described as follows: Phytotoxicity in Vigna angularis (adzuki bean) assessed as visual injury at 1000 g ai/ha after 7 days applied as spray relative to untreated control. To be noted: in vivo, other, 168 h.
Data set [23] has as its system Vigna angularis. As to the kind of experiment: Phytotoxicity in Vigna angularis (adzuki bean) assessed as visual injury at 500 g ai/ha after 28 days applied as spray relative to untreated control. The conditions noted are these: in vivo, other, 672 h.
In data set [24] the test system is Vigna angularis. The data set is described as follows: Phytotoxicity in Vigna angularis (adzuki bean) assessed as visual injury at 500 g ai/ha after 14 days applied as spray relative to untreated control. The conditions noted are these: in vivo, other, 336 h.
The subject of data set [25] is Vigna angularis. The data set is described as follows: Phytotoxicity in Vigna angularis (adzuki bean) assessed as visual injury at 500 g ai/ha after 7 days applied as spray relative to untreated control. To be noted: in vivo, other, 168 h.
The subject of data set [26] is Vigna angularis. As to the kind of experiment: Phytotoxicity in Vigna angularis (adzuki bean) assessed as shoot dry weight at 1000 g ai/ha measured per 1 m row after 42 days applied as spray (reference value: 153 g). The conditions noted are these: in vivo, other, 1008 h.
Data set [27] has as its system Vigna angularis. As to the kind of experiment: Phytotoxicity in Vigna angularis (adzuki bean) assessed as shoot dry weight at 500 g ai/ha measured per 1 m row after 42 days applied as spray (reference value: 153 g). The conditions noted are these: in vivo, other, 1008 h.
The test system of data set [28] is Vigna angularis. The data set is described as follows: Phytotoxicity in Vigna angularis (adzuki bean) assessed as plant height at 1000 g ai/ha after 28 days applied as spray (RVB = 34 cm). The conditions noted are these: in vivo, other, 672 h.

Each structure is given as a SMILES string.

On to `CCOC(=O)[C@@H](C)Oc1ccc(Oc2cnc3cc(Cl)ccc3n2)cc1` [QUIZALOFOP-P-ETHYL], for which the Crop_yield turned out to be 2.08 tons/ha in the data set with Vigna angularis [1] and 2.22 tons/ha in the data set with Vigna angularis [2]. In addition, the Activity turned out to be 135 g with Vigna angularis [3]; 140 g in the data set on Vigna angularis [4]; 14.1% in the data set on Vigna angularis [5]; 13.9% with Vigna angularis [6]; 0.8% in the data set with Vigna angularis [7]; 1.8% with Vigna angularis [8]. The Activity is recorded as 2.4% with Vigna angularis [9]; 0.3% in the data set on Vigna angularis [10]; 1.2% with Vigna angularis [11]; 1.4% in the data set with Vigna angularis [12]; 33.2 cm with Vigna angularis [13]; 35.2 cm in the data set with Vigna angularis [14].

For the compound `CCC/C(=N\OCC)C1=C(O)CC(CC(C)SCC)CC1=O` (stereo not drawn) [SETHOXYDIM], the Crop_yield is listed as 1.95 tons/ha in the data set on Vigna angularis [15] and 2.04 tons/ha with Vigna angularis [16]. Besides, the Activity in the data set on Vigna angularis [17] was determined as 14.3%; in the data set on Vigna angularis [18], 14.1%; in the data set with Vigna angularis [19], 33.1 cm; with Vigna angularis [20], 1.1%; in the data set on Vigna angularis [21] it was 3.6%; in the data set on Vigna angularis [22] it was 4.9%. Also, the Activity with Vigna angularis [23] stood at 0.4%; in the data set on Vigna angularis [24] it was 1.6%; in the data set on Vigna angularis [25] it was 3.7%; with Vigna angularis [26] it was 142 g; in the data set on Vigna angularis [27], 134 g; in the data set on Vigna angularis [28] it was 32.8 cm.
